Measured values from patent publication US6642238B2, “Oxazolidinone thioamides with piperazine amide substituents” (Pharmacia and Upjohn Company, priority 2000, dated 2003).
Values after ≈ are worked out from the molar mass of the structure shown.

Columns and labels:
[1] = test system: Staphylococcus aureus (SAUR 9213); assay: MIC by agar dilution, SAUR 9213; type: cell-based; details: Staphylococcus aureus, Minimum Inhibitory Concentration, strain SAUR 9213
Source text: (§1) The oxazolidinone antibacterial agents of this invention have useful activity against a variety of organisms. The in vitro activity of compounds of this invention can be assessed by standard testing procedures such as the determination of minimum inhibitory concentration (MIC) by agar dilution as described in “Approved Standard. Methods for Dilution Antimicrobial Susceptibility Tests for Bacteria That Grow Aerobically”, 3rd. ed., published 1993 by the National Committee for Clinical Laboratory Standards, Villanova, Pa., USA. The activity of compounds of this invention against Staphylococcus aureus, Staphylococcus epidermidis, Streptococcus pneumoniae, Streptococcus pyogens, Enterococcus faecalis, Moraxella catarrhalis and H. influenzae is shown in Table 1.

[2] = test system: Enterococcus faecalis (EFAE 9217); assay: MIC by agar dilution, EFAE 9217; type: cell-based; details: Enterococcus faecalis, Minimum Inhibitory Concentration, strain EFAE 9217
Source text: as §1

[3] = test system: Enterococcus faecalis (EFAE 12712); assay: MIC by agar dilution, EFAE 12712; type: cell-based; details: Enterococcus faecalis, Minimum Inhibitory Concentration, strain EFAE 12712
Source text: as §1

[4] = test system: Streptococcus pneumoniae (SPNE 9912); assay: MIC by agar dilution, SPNE 9912; type: cell-based; details: Streptococcus pneumoniae, Minimum Inhibitory Concentration, strain SPNE 9912
Source text: as §1

[5] = test system: Moraxella catarrhalis (MCAT 30607); assay: MIC by agar dilution, MCAT 30607; type: cell-based; details: Moraxella catarrhalis, Minimum Inhibitory Concentration, strain MCAT 30607
Source text: as §1

[6] = test system: Streptococcus pyogens (SPYO 152); assay: MIC by agar dilution, SPYO 152; type: cell-based; details: Streptococcus, Minimum Inhibitory Concentration, strain SPYO 152
Source text: as §1

[7] = test system: Staphylococcus epidermidis (SEPI 30593); assay: MIC by agar dilution, SEPI 30593; type: cell-based; details: Staphylococcus epidermidis, Minimum Inhibitory Concentration, strain SEPI 30593
Source text: as §1

[8] = test system: H. influenzae (HINF 30063); assay: MIC by agar dilution, HINF 30063; type: cell-based; details: Haemophilus influenzae, Minimum Inhibitory Concentration, strain HINF 30063
Source text: as §1

Row | Compound | MIC [1] [µg/mL] | MIC [2] [µg/mL] | MIC [3] [µg/mL] | MIC [4] [µg/mL] | melting point | MIC [5] [µg/mL] | MIC [6] [µg/mL] | MIC [7] [µg/mL] | MIC [8] [µg/mL]
1 | CCC(=S)NC[C@H]1CN(c2ccc(N3CCN(C(C)=S)CC3)c(F)c2)C(=O)O1 [EX 4, N-({(5S)-3-[4-(4-ethanethiolyl-1-piperazinyl)-3-fluorophenyl]2-oxo-1,3-oxazolidin-5-yl}methyl)propanethioamide] | 0.5 (≈ 1.18 µM) | 0.5 (≈ 1.18 µM) | 0.5 (≈ 1.18 µM) | 0.125 (≈ 0.294 µM) | 209 to 210 °C | 1 (≈ 2.36 µM) | 0.125 (≈ 0.294 µM) | 0.25 (≈ 0.589 µM) | 1 (≈ 2.36 µM)
2 | CCC(=S)NC[C@H]1CN(c2ccc(N3CCN(C(=O)C(C)=O)CC3)c(F)c2)C(=O)O1 [EX 12, N-({(5S)-3-[3-fluoro-4-(4-pyruvoyl-1-piperazinyl)phenyl]-2-oxo-1,3-oxazolidin-5-yl}methyl)propanethioamide] | 2 (≈ 4.58 µM) | 1 (≈ 2.29 µM) | 1 (≈ 2.29 µM) | 0.5 (≈ 1.15 µM) | 173 to 175 °C (dec.) | 2 (≈ 4.58 µM) | 0.5 (≈ 1.15 µM) | 1 (≈ 2.29 µM) | 8 (≈ 18.3 µM)
3 | CCC(=S)NC[C@H]1CN(c2ccc(N3CCN(C(=O)[C@@H](O)COC)CC3)c(F)c2)C(=O)O1 [EX 8, N-[((5S)-3-{3-fluoro-4-[4-((2S)-2-hydroxy-3-methoxypropanoyl)-1-piperazinyl]phenyl}-2-oxo-1,3-oxazolidin-5-yl)methyl]propanethioamide] | 2 (≈ 4.27 µM) | 1 (≈ 2.13 µM) | 2 (≈ 4.27 µM) | 0.5 (≈ 1.07 µM) | 190 to 191 °C (dec.) | 2 (≈ 4.27 µM) | 0.5 (≈ 1.07 µM) | 1 (≈ 2.13 µM) | 16 (≈ 34.1 µM)
4 | CCC(=S)NC[C@H]1CN(c2ccc(N3CCN(C(=O)[C@H](O)CO)CC3)c(F)c2)C(=O)O1 [EX 17, N-({(5S)-3-[3-fluoro-4-[4-((2R)-2,3-dihydroxypropanoyl)-1-piperazinyl]phenyl]-2-oxo-1,3-oxazolidin-5-yl}methyl)propanethioamide] | 4 (≈ 8.8 µM) | 0.5 (≈ 1.1 µM) | 1 (≈ 2.2 µM) | 0.25 (≈ 0.55 µM) | 132 °C (dec.) | 2 (≈ 4.4 µM) | 0.5 (≈ 1.1 µM) | 0.5 (≈ 1.1 µM) | 8 (≈ 17.6 µM)
